Converted amounts (≈) assume the structure as drawn.
How the values were obtained:
Experiment in all cases: Colony assay of hematopoietic progenitors
Assay type in all cases: cell-based
Conditions in all cases: Homo sapiens, read-out: IC50 for colony formation
[1] = tested on: CFU-Mix
[2] = tested on: BFU-E
[3] = tested on: CFU-GM

C/C=C1\NC(=O)[C@H]2CSSCC/C=C/[C@H](CC(=O)N[C@H](C(C)C)C(=O)N2)OC(=O)[C@H](C(C)C)NC1=O [FK228]
IC50 [1]: 7.8 ng/mL (≈ 14.4 nM) | IC50 [2]: 3.1 ng/mL (≈ 5.73 nM) | IC50 [3]: 4.4 ng/mL (≈ 8.14 nM)

Source: article PMC5926292 (Japanese Journal of Cancer Research : Gann, 2000)
